Activity calls are given as the source filed them. The rule behind the calls is not given here.

Data set [1] concerns Mus musculus. The experiment in a line: Neurotoxicity against Swiss albino Mus musculus (mouse) at 300 mg/kg, ip measured at 0.5 hr. Also noted: dose 300 mg/kg, route intraperitoneal. The following applies: in vivo. The class given is toxicity, organism-based.
In data set [2] the test system is Mus musculus. The experiment in a line: Anticonvulsant activity in Swiss albino Mus musculus (mouse) assessed as protection against maximal electric shock-induced tonic-clonic seizures at 100 mg/kg, ip measured at 4 hr. It counts as functional, organism-based. Set-up: dose 100 mg/kg.
Data set [3] concerns Mus musculus. The experiment in a line: Anticonvulsant activity in Swiss albino Mus musculus (mouse) assessed as protection against ScMet-induced myoclonic-clonic seizures at 30 mg/kg, ip measured at 0.5 hr. The class given is functional, organism-based. Set-up: dose 30 mg/kg.
For data set [4], the system named is Mus musculus. The data set can be described thus: Anticonvulsant activity in Swiss albino Mus musculus (mouse) assessed as protection against maximal electric shock-induced tonic-clonic seizures at 300 mg/kg, ip measured at 0.5 hr. It counts as functional, organism-based. Set-up: dose 300 mg/kg.
Data set [5] concerns Mus musculus. The experiment in a line: Neurotoxicity against Swiss albino Mus musculus (mouse) at 30 mg/kg, ip measured at 0.5 hr. The class given is toxicity, organism-based. Also noted: dose 30 mg/kg, route intraperitoneal. The settings on record: in vivo.
Data set [6] has as its system Mus musculus. The experiment in a line: Anticonvulsant activity in Swiss albino Mus musculus (mouse) assessed as protection against maximal electric shock-induced tonic-clonic seizures at 30 mg/kg, ip measured at 0.5 hr. Also noted: dose 30 mg/kg. The class given is functional, organism-based.
Data set [7] relates to Mus musculus. The data set can be described thus: Anticonvulsant activity in Swiss albino Mus musculus (mouse) assessed as protection against maximal electric shock-induced tonic-clonic seizures at 300 mg/kg, ip measured at 4 hr. The class given is functional, organism-based. Also noted: dose 300 mg/kg.
In data set [8] the test system is Mus musculus. The experiment in a line: Neurotoxicity against Swiss albino Mus musculus (mouse) at 100 mg/kg, ip measured at 4 hr. It counts as toxicity, organism-based. Also noted: dose 100 mg/kg, route intraperitoneal. The following applies: in vivo.
For data set [9], the system named is Mus musculus. The experiment in a line: Anticonvulsant activity in Swiss albino Mus musculus (mouse) assessed as protection against maximal electric shock-induced tonic-clonic seizures at 100 mg/kg, ip measured at 0.5 hr. Set-up: dose 100 mg/kg. The class given is functional, organism-based.
Data set [10] relates to Mus musculus. The experiment in a line: Anticonvulsant activity in Swiss albino Mus musculus (mouse) assessed as protection against ScMet-induced myoclonic-clonic seizures at 300 mg/kg, ip measured at 0.5 hr. The class given is functional, organism-based. Set-up: dose 300 mg/kg.
In data set [11] the test system is Mus musculus. The experiment in a line: Neurotoxicity against Swiss albino Mus musculus (mouse) at 100 mg/kg, ip measured at 0.5 hr. It counts as toxicity, organism-based. Also noted: dose 100 mg/kg, route intraperitoneal. The following applies: in vivo.
For data set [12], the system named is Mus musculus. The experiment in a line: Neurotoxicity against Swiss albino Mus musculus (mouse) at 30 mg/kg, ip measured at 4 hr. The class given is toxicity, organism-based. Set-up: dose 30 mg/kg, route intraperitoneal. The settings on record: in vivo.
Data set [13] deals with Mus musculus. The experiment in a line: Anticonvulsant activity in Swiss albino Mus musculus (mouse) assessed as protection against ScMet-induced myoclonic-clonic seizures at 30 mg/kg, ip measured at 4 hr. The class given is functional, organism-based. Also noted: dose 30 mg/kg.
Data set [14] relates to Mus musculus. The data set can be described thus: Anticonvulsant activity in Swiss albino Mus musculus (mouse) assessed as protection against maximal electric shock-induced tonic-clonic seizures at 30 mg/kg, ip measured at 4 hr. It counts as functional, organism-based. Also noted: dose 30 mg/kg.
Data set [15] has as its system Mus musculus. The data set can be described thus: Neurotoxicity against Swiss albino Mus musculus (mouse) at 300 mg/kg, ip measured at 4 hr. Set-up: dose 300 mg/kg, route intraperitoneal. The class given is toxicity, organism-based. The following applies: in vivo.
The test system of data set [16] is Mus musculus. The data set can be described thus: Anticonvulsant activity in Swiss albino Mus musculus (mouse) assessed as protection against ScMet-induced myoclonic-clonic seizures at 300 mg/kg, ip measured at 4 hr. It counts as functional, organism-based. Set-up: dose 300 mg/kg.
The subject of data set [17] is Mus musculus. The data set can be described thus: Anticonvulsant activity in Swiss albino Mus musculus (mouse) assessed as protection against ScMet-induced myoclonic-clonic seizures at 100 mg/kg, ip measured at 0.5 hr. The class given is functional, organism-based. Also noted: dose 100 mg/kg.
The test system of data set [18] is Mus musculus. The experiment in a line: Anticonvulsant activity in Swiss albino Mus musculus (mouse) assessed as protection against ScMet-induced myoclonic-clonic seizures at 100 mg/kg, ip measured at 4 hr. It counts as functional, organism-based. Set-up: dose 100 mg/kg.

With `CCc1ccccc1NC(=O)CNC(=O)c1ccccc1`, the Activity result with Mus musculus [1], in the data set on Mus musculus [5], in the data set on Mus musculus [8], in the data set with Mus musculus [11], with Mus musculus [12] and in the data set on Mus musculus [15] was “Non-toxic” each time. Further, the result with Mus musculus [2], in the data set with Mus musculus [3], in the data set on Mus musculus [4], with Mus musculus [6], in the data set with Mus musculus [7] and in the data set on Mus musculus [9] was inactive. Besides, the result with Mus musculus [10], in the data set with Mus musculus [13], in the data set with Mus musculus [14], in the data set on Mus musculus [16], in the data set on Mus musculus [17] and in the data set on Mus musculus [18] was inactive.
As for `Cc1ccccc1NC(=O)CNC(=O)c1ccccc1`, the Activity entry with Mus musculus [1], in the data set with Mus musculus [5], with Mus musculus [8], in the data set with Mus musculus [11], in the data set on Mus musculus [12] and in the data set on Mus musculus [15] was “Non-toxic” in each case. Besides, the result with Mus musculus [2], in the data set with Mus musculus [3], in the data set on Mus musculus [6], with Mus musculus [7], in the data set on Mus musculus [9] and in the data set with Mus musculus [10] was inactive. Also, the result in the data set on Mus musculus [13], with Mus musculus [14], with Mus musculus [16], in the data set with Mus musculus [17] and in the data set with Mus musculus [18] was inactive. Further, the result with Mus musculus [4] was Active.
With `Cc1cccc(C)c1NC(=O)CNC(=O)c1ccccc1`, the Activity result with Mus musculus [1], in the data set with Mus musculus [5], in the data set with Mus musculus [8], with Mus musculus [11], in the data set with Mus musculus [12] and in the data set with Mus musculus [15] was “Non-toxic” in each case. Besides, the outcome in the data set with Mus musculus [2] and with Mus musculus [7] was Active. Also, the outcome in the data set with Mus musculus [3], in the data set on Mus musculus [4], with Mus musculus [6], with Mus musculus [9], in the data set with Mus musculus [10] and in the data set on Mus musculus [13] was inactive. Also, the outcome in the data set with Mus musculus [14], in the data set on Mus musculus [16], with Mus musculus [17] and with Mus musculus [18] was inactive.
Regarding `O=C(CNC(=O)c1ccc([N+](=O)[O-])cc1)Nc1ccccc1`, the Activity entry with Mus musculus [1], in the data set on Mus musculus [5], with Mus musculus [8], in the data set with Mus musculus [11], with Mus musculus [12] and with Mus musculus [15] was “Non-toxic” throughout. Further, the outcome in the data set on Mus musculus [2], with Mus musculus [3], with Mus musculus [4], in the data set with Mus musculus [6], in the data set with Mus musculus [7] and with Mus musculus [9] was inactive. Moreover, the result in the data set with Mus musculus [13], with Mus musculus [14], in the data set with Mus musculus [17] and in the data set with Mus musculus [18] was inactive. For the same compound, the outcome in the data set with Mus musculus [10] and in the data set on Mus musculus [16] was Active.
Turning to `O=C(CNC(=O)c1ccccc1Cl)Nc1ccccc1`, the Activity result in the data set on Mus musculus [1], in the data set with Mus musculus [5], with Mus musculus [8], in the data set on Mus musculus [11], in the data set with Mus musculus [12] and in the data set on Mus musculus [15] was “Non-toxic” throughout. The result with Mus musculus [2], in the data set on Mus musculus [3], in the data set with Mus musculus [4], in the data set with Mus musculus [6], in the data set on Mus musculus [9] and in the data set with Mus musculus [10] was inactive. Moreover, the outcome in the data set with Mus musculus [13], in the data set with Mus musculus [14], with Mus musculus [16], with Mus musculus [17] and with Mus musculus [18] was inactive. Further, the result in the data set on Mus musculus [7] was Active.
As to `COc1ccc(NC(=O)CNC(=O)c2ccccc2)cc1`, the Activity entry in the data set on Mus musculus [1], in the data set with Mus musculus [5], in the data set with Mus musculus [8], in the data set with Mus musculus [11], with Mus musculus [12] and in the data set with Mus musculus [15] was “Non-toxic” each time. The outcome in the data set with Mus musculus [2], in the data set on Mus musculus [3], in the data set on Mus musculus [6], in the data set on Mus musculus [10], with Mus musculus [13] and with Mus musculus [14] was inactive. In addition, the result in the data set with Mus musculus [16], with Mus musculus [17] and in the data set with Mus musculus [18] was inactive. Further, the result in the data set on Mus musculus [4], with Mus musculus [7] and with Mus musculus [9] was Active.
`O=C(CNC(=O)c1ccccc1)Nc1ccccc1Cl`: the Activity result in the data set with Mus musculus [1], with Mus musculus [5], in the data set on Mus musculus [8], in the data set on Mus musculus [11], in the data set on Mus musculus [12] and in the data set with Mus musculus [15] was “Non-toxic” throughout. For the same compound, the result in the data set with Mus musculus [2], in the data set on Mus musculus [3], with Mus musculus [4], in the data set on Mus musculus [6], with Mus musculus [7] and in the data set on Mus musculus [9] was inactive. Also, the outcome with Mus musculus [10], in the data set on Mus musculus [13], in the data set on Mus musculus [14], with Mus musculus [16], in the data set on Mus musculus [17] and in the data set with Mus musculus [18] was inactive.
In the case of `COc1ccccc1NC(=O)CNC(=O)c1ccccc1`, the Activity result in the data set with Mus musculus [1], in the data set on Mus musculus [5], in the data set on Mus musculus [8], in the data set with Mus musculus [11], in the data set with Mus musculus [12] and in the data set on Mus musculus [15] was “Non-toxic” throughout. Besides, the result in the data set with Mus musculus [2], in the data set on Mus musculus [3], in the data set with Mus musculus [4], with Mus musculus [6], in the data set with Mus musculus [7] and in the data set with Mus musculus [9] was inactive. The outcome in the data set on Mus musculus [10], in the data set with Mus musculus [13], in the data set on Mus musculus [14], in the data set with Mus musculus [16], with Mus musculus [17] and with Mus musculus [18] was inactive.
For `Cc1ccc(C(=O)NCC(=O)Nc2ccccc2)cc1`, the Activity entry in the data set on Mus musculus [1], in the data set with Mus musculus [5], in the data set on Mus musculus [8], in the data set with Mus musculus [11], in the data set on Mus musculus [12] and in the data set with Mus musculus [15] was “Non-toxic” throughout. The result in the data set on Mus musculus [2], with Mus musculus [3], in the data set on Mus musculus [4], in the data set on Mus musculus [6], in the data set with Mus musculus [7] and with Mus musculus [9] was inactive. Also, the outcome in the data set on Mus musculus [13], with Mus musculus [14], in the data set on Mus musculus [16], in the data set with Mus musculus [17] and with Mus musculus [18] was inactive. Moreover, the outcome in the data set on Mus musculus [10] was Active.

The values are drawn from ChEMBL document CHEMBL3045887, “Synthesis and anticonvulsant activity of some N-(benzoyl)glycinanilide derivatives” (Med Chem Res, 2013).
